Results reported in patent US20160318856A1, “Substituted Urea eIF2alpha Kinase Activators” (THE BRIGHAM AND WOMEN'S HOSPITAL, INC., priority 2013, published 2016).
Like-named read-outs stand apart in the source and are kept apart here.

How the values were obtained:
[1] = test system: eIF2α phosphorylation (eIF2•GTP•Met-tRNAi ternary complex; HRI activation); experiment: surrogate dual luciferase eIF2α phosphorylation (ternary complex) assay; assay type: cell-based, human; settings: for maximal fold induction: Homo sapiens; for C3X: Calculated concentration of compound that will cause three-fold increase in the surrogate eIF2α phosphorylation assay: Table 7
How it was run: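 Cell-based dual luciferase reporter: firefly luciferase behind the ATF-4 5′UTR (uORFs) and renilla luciferase behind a uORF-free 5′UTR, read with a dual glow kit. Activity given as firefly/renilla ratio normalised to DMSO wells set at 1, with a rising ratio reflecting reduced ternary complex (e.g., HRI activation).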

[2] = test system: CRL-2813 human melanoma cancer cells; experiment: cell proliferation (SRB) assay, CRL-2813; assay type: cell-based; settings: Homo sapiens, CRL2813
How it was run: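 Cells exposed 5 days to 0.5–20 μM compound, then TCA-fixed and stained with sulforhodamine B. Growth as 100×[(T−T0)/(C−T0)] from absorbance of treated, control and time-zero cultures; cell death as 100×[(T−T0)/T0] where T is below T0.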

Panc-1 = experiment: cell proliferation (SRB) assay, Panc-1; assay type: cell-based; settings: Homo sapiens, Table 7
Experimental: (§1) Cells were seeded in 96-well plates and maintained for 5 days in the presence of 0.5 to 20 μM of individual compound, and cell proliferation was measured by the sulforhodamine B (SRB) assay as described previously (see, for example, Palakurthi, S. S. et al. Cancer Research 2000, 60(11), 2919-2925). Briefly, at the end of a 5-day treatment, cells were fixed in 10% cold trichloroacetic acid. Cell number was estimated by measuring the remaining bound dye of sulforhodamine B after washing. The percentage of growth was calculated by using the equation: 100×[(T−T0)/(C−T0)], where T and C represent the absorbance in treated and control cultures at Day 5, and T0 at time zero, respectively. If T is less than T0, cell death has occurred and can be calculated from 100×[(T−T0)/T0].
(§2) The compounds shown in Table 7 were evaluated using for activation of HRI using the dual luciferase surrogate eIF2α phosphorylation assay (see, for example, Chen, T. et al. Nature Chem Biol 2011, 7, 610-616) and for inhibition of cell proliferation using the SRB assay (see, for example, Palakurthi, S. S. et al. Cancer Res 2000, 60, 2919-2925) as described above.

ASPC-1 = experiment: cell proliferation assay, ASPC-1; assay type: cell-based; settings: Homo sapiens, ASPC1; SRB assay, Table 7; read-out: IC50 ASPC-1
Experimental: as §1, §2

[3] = test system: CRL-2813 human melanoma cancer cells transfected with HRI-targeting or non-targeting siRNA; experiment: cell proliferation (SRB) assay after HRI knockdown; assay type: cell-based; settings: for fold higher IC50 values in cells transfected with HRI-targeting siRNA vs. non-targeting siRNA: CRL-2813 cells, FIG. 10; for dependence of inhibition of cell proliferation on HRI: HRI siRNA vs non-target siRNA, CRL-2813 (also MCF-7); for fold difference in resistance of cells to inhibition of cell proliferation upon HRI knockdown: average, CRL-2813, FIG. 8
Experimental: as §1
Cell proliferation is a meaningful read-out for determining the specificity of a compound as it captures both on-target and off-target effects of the compound under study. […] If these compounds specifically activate HRI and this activity is required for the inhibition of cell proliferation, then reducing the expression of HRI should blunt their effect on cell proliferation. For this purpose, expression of HRI was knocked down in CRL-2813 human melanoma (about 70% knockdown efficiency) and MCF-7 human breast cancer cells (about 90% knockdown efficiency). These two cell lines were chosen because the HRI knockdown efficiency is lower in CRL-2813 than in MCF-7 cells providing a sort of dose-response data that correlates knockdown efficiency with the resistance of cells to inhibition of cell proliferation. […] Referring to FIG. 5A, CRL-2813 human melanoma cancer cells, and (FIG. 5B) MCF-7 human breast cancer cells were transfected with HRI targeted or non-targeted siRNA, treated with the indicated concentrations of I-6p and cell proliferation was measured by SRB assay. Calculated IC50 for all four compounds tested in CRL-2813 human melanoma cancer cells and MCF-7 human breast cancer cells transfected with non-target siRNA control (NTC) or HRI is shown in FIG. 5C and FIG. 5D, respectively. The experiment was conducted in triplicate and each experiment was independently performed three times. Data are shown as Mean±S.E.M. *NTC=non-target siRNA control.
Referring to FIG. 8, CRL-2813 human melanoma cancer cells were transfected with HRI targeted or non-targeted siRNA, treated with the indicated concentrations of (A) I-14, (B) I-15, (C) III-4 and (D) III-5 and cell proliferation was measured by SRB assay. Calculated IC50 for all four compounds tested in CRL-2813 human melanoma cancer cells transfected with non-target siRNA control (NTC) or HRI is shown in (E). The experiment was conducted in triplicate and each experiment was independently performed three times. Data are shown as Mean±S.E.M. *NTC=non-target siRNA control, IC50=effective dose of drug that inhibit cell proliferation by 50%.
In general, if the affinity of compounds for their molecular target is increased this should result in higher specificity of the compounds in the cell proliferation assay. […] These five compounds, two with average and three with high potency, were tested in cell proliferation assay using CRL-2813 cells transfected with non-targeted siRNA or HRI-targeted siRNA as described above.

[4] = DMSO = 1, maximum tested concentration 20 μM, read-out: Emax: Maximum activity of compound expressed as fold over vehicle
[5] = SRB assay, Table 7, read-out: IC50 CRL-2813
[6] = surrogate eIF2α phosphorylation assay, Table 3, read-out: Emax (F/R)
[7] = cell proliferation assay, Table 3, cell line not named, values equal CRL-2813 values of Table 8, read-out: IC50
[8] = surrogate eIF2α phosphorylation assay, Table 4, read-out: Emax (F/R)
[9] = cell proliferation assay, Table 4, cell line not named, read-out: IC50

Row | Compound | maximal fold induction [1, 4] | C3X: Calculated concentration of compound that will cause three-fold increase in the surrogate eIF2α phosphorylation assay [1] [µM] | IC50 [2, 5] [nM] | IC50 (Panc-1) [nM] | IC50 (ASPC-1) [nM] | maximal fold induction [1, 6] | IC50 [2, 7] [nM] | fold higher IC50 values in cells transfected with HRI-targeting siRNA vs. non-targeting siRNA [3] [fold] | dependence of inhibition of cell proliferation on HRI [3] | fold difference in resistance of cells to inhibition of cell proliferation upon HRI knockdown [3] [fold] | maximal fold induction [1, 8] | IC50 [2, 9] [nM]
1 | CC(=O)Nc1cc(C(F)(F)F)ccc1O[C@H]1CC[C@H](NC(=O)Nc2cccc(C(F)(F)F)c2)CC1 | 4.2 | 3.5 | 1900 | 1700 | 2600 |  |  |  |  |  |  | 
2 | O=C(Nc1cccc(C(F)(F)F)c1)NC1CCC(Oc2cccc(F)c2)CC1 (stereo not shown) [Compound I-15, 1-(4-(3-Fluorophenoxy)cyclohexyl)-3-(3-(trifluoromethyl)phenyl)urea] |  |  |  |  |  | 7.23 | 2400 ± 600 | ~7 | dependent on HRI | ~8 |  | 
3 | NC(=O)c1cc(O[C@H]2CC[C@H](NC(=O)Nc3cccc(OC(F)(F)F)c3)CC2)ccc1C(F)(F)F | 5 | 14 | 3000 | 3000 | 2900 |  |  |  |  |  |  | 
4 | O=C(Nc1cccc(OC(F)(F)F)c1)N[C@H]1CC[C@H](Oc2ccc(C(F)(F)F)cc2[N+](=O)[O-])CC1 | 12 | 0.5 | 500 | 1100 | 800 |  |  |  |  |  |  | 
5 | NC(=O)c1cc(C(F)(F)F)ccc1O[C@H]1CC[C@H](NC(=O)Nc2cccc(OC(F)(F)F)c2)CC1 | 6 | 8 | 1400 | 1900 | 3200 |  |  |  |  |  |  | 
6 | NC(=O)c1cc(O[C@H]2CC[C@H](NC(=O)Nc3cccc(C(F)(F)F)c3)CC2)ccc1C(F)(F)F | 2.8 | >20 | 2100 | 2500 | 3000 |  |  |  |  |  |  | 
7 | O=C(Nc1cccc(C(F)(F)F)c1)NC1CCC(Oc2ccccc2F)CC1 (stereo not shown) [Compound I-14, 1-(4-(2-Fluorophenoxy)cyclohexyl)-3-(3-(trifluoromethyl)phenyl)urea] |  |  |  |  |  | 7.98 | 2450 ± 900 | ~7 | dependent on HRI | ~8 |  | 
8 | O=C(Nc1cccc(C(F)(F)F)c1)N[C@H]1CC[C@H](Oc2ccc(C(F)(F)F)cc2)CC1 | 25 | 0.4 | 500 | 900 | 900 |  |  |  |  |  |  | 
9 | CC(=O)Nc1cc(C(F)(F)F)ccc1O[C@H]1CC[C@H](NC(=O)Nc2cccc(OC(F)(F)F)c2)CC1 | 5 | 4 | 1700 | 2500 | 2800 |  |  |  |  |  |  | 
10 | NC(=O)c1cc(C(F)(F)F)ccc1O[C@H]1CC[C@H](NC(=O)Nc2cccc(C(F)(F)F)c2)CC1 | 8 | 7 | 1900 | 2700 | 4000 |  |  |  |  |  |  | 
11 | N#Cc1cc(C(F)(F)F)ccc1O[C@H]1CC[C@H](NC(=O)Nc2cccc(C(F)(F)F)c2)CC1 | 8 | 2.5 | 1300 | 1800 |  |  |  |  |  |  |  | 
12 | O=C(Nc1cccc(C(F)(F)F)c1)NC1CCCCC1Oc1ccc(C(F)(F)F)cc1 (stereo not shown) [III-5, 1-(2-(4-(Trifluoromethyl)phenoxy)cyclohexyl)-3-(3-(trifluoromethyl)phenyl)urea] |  |  |  |  |  |  |  |  | dependent on HRI |  | 5.89 | 3100 ± 1100
13 | O=C(Nc1cccc(C(F)(F)F)c1)N[C@H]1CC[C@H](Oc2ccc(F)cc2)CC1 | 11 | 2.5 | 2100 | 3000 |  |  |  |  |  |  |  | 
14 | N#Cc1ccc(O[C@H]2CC[C@H](NC(=O)Nc3cccc(C(F)(F)F)c3)CC2)cc1 | 4 | 5 | 4000 | 3000 |  |  |  |  |  |  |  | 
15 | O=C(Nc1cccc(OC(F)(F)F)c1)N[C@H]1CC[C@H](Oc2ccc(C(F)(F)F)cc2)CC1 | 28 | 0.2 | 900 | 1500 | 1000 |  |  |  |  |  |  | 
16 | O=C(Nc1cccc(C(F)(F)F)c1)NC1CCC(OCc2ccc(F)cc2)CC1 (stereo not shown) [III-4, 1-(4-((4-Fluorobenzyl)oxy)cyclohexyl)-3-(3-(trifluoromethyl)phenyl)urea] |  |  |  |  |  |  |  |  | dependent on HRI |  | 9.58 | 2650 ± 800
17 | O=C(Nc1cccc(C(F)(F)F)c1)N[C@H]1CC[C@H](Oc2ccc(C(F)(F)F)cc2[N+](=O)[O-])CC1 | 13 | 5 | 4000 | 4000 | > 10000 |  |  |  |  |  |  | 
18 | N#Cc1cccc(NC(=O)N[C@H]2CC[C@H](Oc3ccc(C(F)(F)F)cc3)CC2)c1 | 10 | 2 | 800 | 2500 |  |  |  |  |  |  |  | 
